From article PMC9151520 (Archives of Toxicology, 2022)
Values joined by “and” are separate entries in the source; they are usually repeats but may differ in a detail not shown here. Equal entries are not always repeated. Structures can show the parent of a compound that is named as a salt. Where two headings read alike, the source gives them in different places.

Experiments:
[1] = test system: p53 signaling (p53RE-bla HCT-116 cells)
[2] = test system: p53 signaling (p53RE-bla HCT-116 cells); conditions: for EC50: read-out: p53 activation EC50, HLM
[3] = test system: p53 signaling (p53RE-bla HCT-116 cells); test: cells; assay type: cell-based
[4] = read-out: EC50, p53 activation, primary screening
[5] = Homo sapiens, HCT-116, read-out: Efficacy, p53 activation, cherry pick confirmation

| Compound | EC50, p53 activation, cherry pick confirmation [1] | EC50, p53 activation, primary screening [1] | Efficacy, p53 activation, cherry pick confirmation [1] | Efficacy, p53 activation, primary screening [1] | EC50, p53 activation, cherry pick confirmation [2] | EC50, p53 activation, primary screening [2] | Efficacy, p53 activation, cherry pick confirmation [2] | Efficacy, p53 activation, primary screening [2] | Efficacy, p53 activation, cherry pick confirmation [3] | Efficacy, p53 activation, primary screening [3] | EC50 [3, 4] [µM] | also measured |
| --- | --- | --- | --- | --- | --- | --- | --- | --- | --- | --- | --- | --- |
| Cl.O.c1cnc2c(c1)ccc1cccnc12 | inactive | inactive | inactive | inactive | inactive | inactive | inactive | inactive | 70.9047 | 35.453 | 25.8 | EC50 ([3]; read-out: EC50, p53 activation, cherry pick confirmation): 50.2 µM; EC50, viability, cherry pick confirmation (p53RE-bla HCT-116 cells): inactive; EC50, viability, primary screening (p53RE-bla HCT-116 cells): inactive; Efficacy, viability, primary screening (p53RE-bla HCT-116 cells): inactive; EC50 (p53RE-bla HCT-116 cells; read-out: EC50, viability, cherry pick confirmation): 22.1 µM |
| O=C(c1ccc(O)c(O)c1)c1ccc(O)cc1O [2,3',4,4'-Tetrahydroxybenzophenone] |  |  |  |  |  |  |  |  |  |  |  | p53 activation efficacy, cherry pick confirmation [3]: inactive |
| CC(C)c1ccc2cc(C(C)C)ccc2c1 [2,6-Diisopropylnaphthalene] |  |  | inactive | inactive |  |  |  |  | inactive |  |  |  |
| O=C1CCCc2c1cc1ccc3cccc4ccc2c1c34 [9,10-Dihydrobenzo[a]pyren-7(8H)-one] |  |  |  |  |  |  |  |  |  |  |  | p53 activation EC50, RLM [1]: inactive; p53 activation Efficacy, RLM [1]: inactive; p53 activation EC50, HLM [2]: inactive; EC50 [2]: 9.29 µM; Viability EC50, HLM (p53RE-bla HCT-116 cells): inactive; Viability EC50, No MS (p53RE-bla HCT-116 cells): inactive; Viability EC50, RLM (p53RE-bla HCT-116 cells): inactive; Viability Efficacy, HLM (p53RE-bla HCT-116 cells): inactive; Viability Efficacy, No MS (p53RE-bla HCT-116 cells): inactive; Viability Efficacy, RLM (p53RE-bla HCT-116 cells): inactive |
| Oc1c(Cl)cc(Cl)cc1Sc1cc(Cl)cc(Cl)c1O [Bithionol] | inactive | inactive | inactive | inactive | inactive | inactive | inactive | inactive |  | 93.9867 | 39.6 | EC50 ([3]; Homo sapiens, HCT-116, read-out: EC50, p53 activation, cherry pick confirmation): 20.3 µM; Emax [3, 5]: 74% |
| CSc1ccc2c(c1)N(CCC1CCCCN1C)c1ccccc1S2 (stereo not drawn) [Thioridazine hydrochloride] | inactive | inactive | inactive | inactive | inactive | inactive | inactive | inactive |  |  |  | Emax [3, 5]: 51.8%; Emax ([3]; Homo sapiens, HCT-116, read-out: Efficacy, p53 activation, primary screening): 64.5% |
| Irinotecan hydrochloride |  |  |  |  |  |  |  |  | 86.836 | 70.7017 | 4.18 |  |
| Phenylmercuric acetate |  |  |  |  |  |  |  |  |  |  |  | p53 activation EC50, RLM [1]: inactive; p53 activation Efficacy, RLM [1]: inactive; p53 activation EC50, HLM [2]: inactive; EC50 [2]: 12.5 µM; p53 activation Efficacy, No MS [3]: 66.4107% and 63.4503% |
